Experimental data from US20190328900A1, “ANTIBODY-DRUG CONJUGATES AND THERAPEUTIC METHODS USING THE SAME” (priority 2016, published 2019).

Columns and labels:
[1] = test system: pseudotyped virus (NL4-3 provirus with various HIV gp160 envelope clones); assay: Pseudotyped virus assay (PSV), luciferase reporter, U373 cells expressing human CD4 and CXCR4 or CCR5; format: cell-based
From the text: A pseudotyped virus assay (PSV) was used to assess the potency of various HIV entry inhibitors. Replication defective virus was produced by co-transfection of a plasmid containing an NL4-3 provirus [containing a mutation in the envelope open reading frame (ORF) and a luciferase reporter gene replacing the nef ORF] and a CMV-promoter expression plasmid containing an ORF for various HIV gp160 envelope clones. The harvested virus was stored at −80C in small aliquots and the titer of the virus measured to produce a robust signal for antiviral assays.
The PSV assay was performed by using U373 cells stably transformed to express human CD4, the primary receptor for HIV entry and either human CXCR4 or human CCR5 which are the co-receptors required for HIV entry as target cells for infection. Molecules of interest (including, but not limited to small molecule inhibitors of HIV, neutralizing antibodies of HIV, antibody-drug conjugate inhibitors of HIV, peptide inhibitors of HIV, and various controls) were diluted into tissue culture media and diluted via serial dilution to create a dose range of concentrations. This dose-range was applied to U373 cells and the pre-made pseudotyped virus added. The amount of luciferase signal produced after 3 days of culture was used to reflect the level of pseudotyped virus infection.

HIV strains/subtypes = conditions: cited from earlier work

Row | Molecule | IC50 ([1]; Human immunodeficiency virus 1, NL43, Table 14, first IC50 column (no further heading)) [nM] | IC50 ([1]; Human immunodeficiency virus 1, NL43, Table 14, second IC50 column (no further heading)) [nM] | IC50 ([1]; Human immunodeficiency virus 1, NL43, Table 14, third IC50 column (no further heading)) [nM] | HIV strains/subtypes neutralized (HIV strains/subtypes) [%]
1 | O=C1Nc2ccc(Cl)cc2[C@@](C#CC2CC2)(C(F)(F)F)O1 [EFV, Efavirenz] | 1.9 | 1.53 | 1.6 | 
2 | VRC01: broadly neutralizing anti-HIV antibody (IgG1) binding gp120, expressed in CHO cells; SEQ ID NO:9-13 |  |  |  | 90
